Columns and labels:
[1] = tested on: human iPS cell line (253G1); assay: Non-freezing refrigerated storage in single cell state at 4° C., survival rate by trypan blue; assay type: cell-based; settings: for effect of antioxidant/radical scavenger on ST80 (ranking): added to HTM1 at various concentrations; for 80% survival-rate maintenance days (ST80): single cell state, 4° C.
Text: A healthy human-derived human iPS cell line (253G1) obtained from the Center for iPS Cell Research and Application, Kyoto University was maintained and cultured under feeder-free conditions. For this culture, StemFit (registered trademark) AK02N (Ajinomoto), which is a commercially available medium for clinical research for human ES/iPS cells was used. When the cells reached 70-80% confluence on the 7th day after the start of the culture, the cells were enzymatically stripped off from a container by using 0.5X TrypLE® Select, and then dispersed and washed. Subsequently, the cells were suspended in a new StemFit® AK02N medium containing 10 µM Y27362 (Fujifilm Wako Pure Chemical Industries, Ltd.) as a ROCK inhibitor, and added with iMatrix-511 (MATRIXOME, Inc.) as a further cell culture substrate at 0.1 µg/cm^2. Then, the cells were seeded at a concentration of 1.3E3/cm^2 (1.3 ×10^3/cm^2). The day after the seeding, the medium was replaced with StemFit® AK02N medium containing no Y27362, then the medium was replaced every 3 days and subcultured or tested on day 7.
The human iPS cells obtained in “1.” above are added into the refrigerated storage liquids HTM1 and HTM2 in “2.” above to be suspended at 1E6 cells/mL (number of floating cells 1x10^6 cells/mL) in a cell state. Then, the suspensions were placed into a plastic tube and allowed to stand at 4° C. for storage. The survival rate was determined by counting the number of living cells after staining with trypan blue.
The statistical processing in the examples of the present application was performed as follows. The survival rate maintenance curves in FIGS. 1A and 2B were obtained by using “R ver 3.5.1” to fit the four-variable logistic curve. The 1way ANOVA and Bonferoni and Dunnetts tests were calculated using “Graphpad Prism 5.04”.
Antioxidants or radical scavengers were added to HTM1 at various concentrations and subjected to the non-freezing refrigerated storage test as described in “3.” above. The added antioxidants or radical scavengers are shown in FIG. 5A and are: Trolox (Trx, Wako), EGCG (Teavigo®, DSM), N-acetylcysteine (NAC, Tokyo Kasei), L-ascorbic acid (AA, WAKO)), and edaravone (3-Methyl-1-phenyl-2-pyrazoline-5-one, Sigma).

[2] = tested on: human iPS cells; assay: Relative survival rate after 6 days of refrigerated storage and 1 day of recovery culturing; assay type: cell-based; settings: for effectiveness in refrigerated storage (relative survival rate): 0.04 mM to 5.0 mM added to HTM-alpha without trolox and GlutaMAX, compared with trolox 2.0 mM
Procedure: The HTM-alpha (UW solution + MEM-alpha, 2: 1) described in “2.” above, which has not been added with trolox and GlutaMAX (registered trademark, GIBCO), is used in FIGS. 6A and 2A. The effect of the addition of tocopherol (vitamin E) and tocopherol acetate (vitamin E derivative) in the non-freezing refrigerated storage was investigated by the same procedure as in case of trolox addition in the above. Tocopherol and tocopherol acetate were added so as to become 0.04 mM to 5.0 mM in the same manner as the trolox addition, and refrigerated storage was performed. At this time, a sample to which trolox at 2.0 mM, which is a water-soluble vitamin E analog, was added was also tested at the same time. FIG. 6D summarizes the relative survival rates after 6 days of the storage and 1 day of recovery cultivation.
Here, the effect of adding polyvinyl alcohol (PVA) instead of hydroxyethyl starch (HES) was investigated. Here, the composition of the UW solution shown in Table 1 above, excluding hydroxyethyl starch (HES), was adopted. Thus, the other components are same with those in the HTM-alpha (UW solution + MEM-alpha, 2: 1) while polyvinyl alcohol (PVA) in the range of 0.25% to 2.5% (weight) were added in the storage liquids used here. The cell viability was evaluated in the same manner as in the case of FIG. 6D above. That is, the protective effect of polyvinyl alcohol (PVA) was examined by the same procedure as in FIGS. 6A and 2A. At this time, a sample having a hydroxyethyl starch (HES) concentration of 5% (weight) was also tested at the same time. FIG. 12A summarizes the relative survival rates after 6 days of the refrigerated storage and 1 day of recovery culturing. […] It should be noted that polyvinyl alcohol (PVA) is cheaper than hydroxyethyl starch (HES), and is considered to be safer for living tissues.
Next, in the same manner as in “13.” above, mannitol was added together with polyvinyl alcohol (PVA), and the synergistic effect was verified. […]

[3] = tested on: mouse blastocyst stage embryos; assay: Refrigerated storage of mouse embryos: escape from the zona pellucida; assay type: cell-based, mouse (ICR); settings: 14 µM to 140 µM; low temperature storage for 5 days and 7 days
Procedure: On the other hand, in order to try non-freezing refrigerated storage of mouse embryos (FIGS. 10 to 11), in vitro fertilization was performed by ova and sperms from female and male mice (both ICR), and then embryos were cultured for 3.5 days (84 hours). Here, HTF (Fuji Film Wako Pure Chemical Industries, Ltd.) was used as the medium for insemination, and KSOM (Arc Resource) was used for culturing.
As described above, a blastocyst stage embryo 3.5 days after in vitro fertilization was immediately used as it was, and a refrigerated storage experiment was conducted. Specifically, for this blastocyst stage embryo, the medium was replaced with the HTM-alpha, HTM1, and HTS FRS as used in the above “11.” and the UW solution, in respective experiments. […] Both of HTM-alpha and HTM1 here are obtained by adding 5 mM Trolox and 5-fold concentration (x5; 10 mM) GlutaMAX (registered trademark) in the same manner as in “11.” above.
Next, the effect of adding adenine hydrochloride (Tokyo Kasei) was investigated in the same manner as in FIGS. 7E to 7F. That is, under the same conditions as in the experiment of FIG. 10, the rate of embryos that escaped the zona pellucida when Adenine hydrochloride (Tokyo Kasei) was added at each concentration was determined.

[4] = tested on: human iPS cells; assay: Refrigerated storage in adhesive state (1): proliferation on recultivation for 4 days; assay type: cell-based
Procedure: Human iPS cells obtained in the same manner as in “1.” above were used. However, at the final stage of culturing, the cells were seeded at a slightly lower concentration (1.0E3/cm^2) than the maintenance culture of “1.” above, and the day after this seeding, culture medium was replaced by StemFit® A[…] medium containing no Y27362. Then, the medium was removed 4 days after the seeding. Subsequently, the medium was replaced with HTM1 which is for the non-freezing refrigerated storage, and the medium with the cells was left to stand for 3 or 6 days under 4° C. In other words, in a state the cells were aggregated and adhered to each other, the cells were stored in non-freezing refrigerated condition for 3 days or 6 days. Trolox was added to HTM1, which is the medium for refrigerated storage. […] A UW solution (BELZER UW (registered trademark) COLD STORAGE LIQUID) was also used as the refrigerated storage medium of the comparative example. The cells after the non-freezing refrigerated storage were lightly washed with culture medium after the refrigerated storage medium were removed. Then, StemFit® A[…] medium was added and culturing was made for 4 days. At the end of this culturing, cells were enzymatically detached (by using 0.5X TrypLE® Select), and dispersed so that number of viable cells are counted. Then, it was compared with the number of cells at the start of refrigerated storage. In addition, after taking a phase difference image at the end and start of the culturing, image processing was performed with ImageJ to extract and binarize the colony area, and the colony area was measured to evaluate the proliferative ability. The above experiment was aimed at developing a refrigerated storage method in a state iPS cells were adhered, and proliferative ability (colony forming ability) subsequent to culturing for 4 days after the non-freezing refrigerated storage for 3 or 6 days. FIGS. 7A-7B show images of colonies obtained by the […] for 4 days after 3 days of the refrigerated storage, and FIGS. 7C-7D show images of colonies obtained by recultivation for 4 days after he refrigerated storage for 6 days. Here, FIGS. 7A and 7C are phase differentiation images, and binarized images of these are shown in FIGS. 7B and 7D, respectively. […] Further, in the bar graphs of FIGS. 7F and 8, the rate of increase in the number of colonies when recultivated for 4 days after the refrigerated storage for 3 days and 6 days. In the graph, the rate for a control, which is for cell not subjected to the refrigerated storage, is taken as “1” or 100%.

[5] = tested on: human iPS cells; assay: Colony forming ability (relative colony efficiency) after refrigerated storage for 6 days and culturing for 5 days; assay type: cell-based; settings: 6 days storage, 5 days culturing
Procedure: The cell proliferation ability after non-freezing refrigerated storage was verified as follows. First, the human iPS cells obtained in the above “1.” were placed into the refrigerated storage liquid HTM1 of the above “2.” and stored in the non-freezing refrigerated state for 6 days as in the above “3.”. The cells were then suspended in StemFit® AK02N medium containing 10 µM Y27362, into which iMatrix-511 was added by 0.1 µg/cm^2. and seeded at a concentration of 1.3E3/cm^2. On 5th day of culturing, the cells were stained with fixed alkaline phosphatase, and then the number of colonies formed to a certain size or larger was measured using a colony counter. The number of colonies when cultured for 5 days without being subjected to the refrigerated storage was similarly measured and used as a control. Then, the number of colonies obtained by culturing for 5 days after the refrigerated storage was divided by the number of colonies in this control to obtain colony forming ability (Relative colony efficiency).
Next, in order to verify the proliferative ability after refrigerated storage and recultivation, cells having been stored in the refrigerated state for 6 days were seeded in the same manner as in “4.” above, and the colony forming ability on the 5th day of culturing was compared. […] This obtained value was almost the same as that of the customary conventional slow-cooling cryoprerservation method placing the cell suspension in a freezer at -80° C.

[6] = additive 5 mM in HTM1, listed as trolox

Which “effect of antioxidant/radical scavenger on ST80 (ranking)” value (“effect of antioxidant/radical scavenger” below) [1] does the source give for O=C(O[C@@H]1Cc2c(O)cc(O)cc2O[C@@H]1c1cc(O)c(O)c(O)c1)c1cc(O)c(O)c(O)c1 [EGCG] here?
The value was “third highest effect”.

For CC(=O)N[C@@H](CS)C(=O)O [N-acetylcysteine], which “effect of antioxidant/radical scavenger” value [1] is on record?
Its value is “third highest effect”.

Which “effectiveness in refrigerated storage (relative survival rate)” value [2] does the source give for CC(=O)Oc1c(C)c(C)c2c(c1C)CCC(C)(CCC[C@H](C)CCC[C@H](C)CCCC(C)C)O2 (stereo partly drawn) [tocopherol acetate] here?
The value was “less effective in refrigerated storage than trolox”.

For tocopherol, which “effectiveness in refrigerated storage (relative survival rate)” value [2] is on record?
Its value is “less effective in refrigerated storage than trolox”.

What does the source list for Cl.Nc1ncnc2nc[nH]c12 [Adenine, adenine hydrochloride]?
zona pellucida escape rate [3]: relatively high zona pellucida escape rate; proliferation rate at recultivation ([4]; 2.8 mM and 4.2 mM in HTM1 with Trolox 5 mM, storage 6 days): significantly increased; growth rate at recultivation ([4]; 8.2 mM in HTM1 with Trolox 5 mM, storage 6 days): decreased the growth rate

With O=C1O[C@H]([C@@H](O)CO)C(O)=C1O [L-Ascorbic Acid, L-ascorbic acid] as the molecule, how does the “effect of antioxidant/radical scavenger” value [1] read?
The value was “did not show much effect”.

Which “viability of the cells after refrigerated storage” value ([2]; 30 mM to 90 mM together with 0.5% PVA in HTM-alpha without HES, compared with 5% HES) does the source give for OC[C@@H](O)[C@@H](O)[C@H](O)[C@H](O)CO [mannitol] here?
Its value is “higher”.

How did the “effect of antioxidant/radical scavenger” value [1] turn out when CC1=NN(c2ccccc2)C(=O)C1 [Edaravone, 3-Methyl-1-phenyl-2-pyrazoline-5-one] was run?
Its value is “second highest effect”.

What does the source list for Cc1c(C)c2c(c(C)c1O)CCC(C)(C(=O)O)O2 (stereo not drawn) [Trolox]?
colony forming ability as multiple of HTM1 alone ([5]; 5.0 mM added to HTM1): about twice; colony forming ability relative to control not subjected to refrigerated storage ([5]; 5.0 mM added to HTM1): 41.2%; colony forming ability as multiple of HTM1 alone ([5]; 5.0 mM added to HTM1, listed as trolox): 2.3 times; colony forming ability, dependence on concentration ([5]; added to HTM1): increased depending on the concentration of trolox; ST80 compared with HTM1 with no trolox added ([1]; 0.5 mM or more added to HTM1): significantly higher; ST80, dependence on addition concentration ([1]; added to HTM1, concentration varied): increase approximately with increasing trolox concentrations; effect of antioxidant/radical scavenger on ST80 (ranking) [1]: most effective; survival rate maintenance days (ST80) as multiple of HTM1 alone ([1]; additive 5 mM in HTM1): about 4 times; survival rate maintenance days (ST80) as multiple of UW solution ([1]; additive 5 mM in HTM1): 9.5 times; survival rate maintenance days (ST80) as multiple of HTM1 alone [1, 6]: 4.4 times; 80% survival-rate maintenance days (ST80) ([1]; additive 5 mM in HTM1): ≥ 20 days; 80% survival-rate maintenance days (ST80) [1, 6]: 20.11 days; cell proliferation rate at recultivation compared with control not refrigerated ([4]; 5 mM added into HTM1, storage 3 days): almost the same value as that in the control; cell proliferation rate at recultivation relative to control not refrigerated ([4]; 5 mM added into HTM1, storage 6 days): about 10%

Reference: patent US20230189790A1, “NON-FREEZING REFRIGERATED STORAGE LIQUID FOR STEM CELLS” (BIOVERDE INC., priority 2019, published 2023)
